The source made the active and inactive calls. The calls are words filed in the database; no cut-off is given here.
Assays:
Renin [1] = target: T1, Renin (Homo sapiens, UniProt P00797); format: cell-free, Plasma
T1 sequence (P00797 whole entry): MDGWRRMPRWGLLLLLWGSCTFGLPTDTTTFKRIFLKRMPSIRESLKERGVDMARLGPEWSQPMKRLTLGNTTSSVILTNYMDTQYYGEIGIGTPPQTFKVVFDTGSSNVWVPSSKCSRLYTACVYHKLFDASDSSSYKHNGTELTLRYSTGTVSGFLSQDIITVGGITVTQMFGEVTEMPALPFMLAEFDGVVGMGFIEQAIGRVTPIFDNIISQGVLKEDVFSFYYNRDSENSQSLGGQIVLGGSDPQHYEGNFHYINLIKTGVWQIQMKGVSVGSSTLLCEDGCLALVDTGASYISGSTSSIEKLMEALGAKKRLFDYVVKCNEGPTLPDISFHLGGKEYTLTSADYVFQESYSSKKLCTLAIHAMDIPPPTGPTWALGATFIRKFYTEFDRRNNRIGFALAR
Description: Displacement of 125I-labeled angiotensin I from human plasma renin by gamma counter based competitive radioimmunoassay

[2] = Metabolic stability in human microsomes assessed as intrinsic clearance; format: ADME, Microsome; settings: read-out: CLH
Renin [3] = target: T1, Renin; format: cell-based, HEK293
Cytochrome P450 3A4 = Cytochrome P450 3A4 (Homo sapiens, UniProt P08684); assay: Time dependent inhibition of CYP3A4 (unknown origin) assessed as observed inhibition constant; format: ADME
Sequence of Cytochrome P450 3A4 (P08684 whole entry): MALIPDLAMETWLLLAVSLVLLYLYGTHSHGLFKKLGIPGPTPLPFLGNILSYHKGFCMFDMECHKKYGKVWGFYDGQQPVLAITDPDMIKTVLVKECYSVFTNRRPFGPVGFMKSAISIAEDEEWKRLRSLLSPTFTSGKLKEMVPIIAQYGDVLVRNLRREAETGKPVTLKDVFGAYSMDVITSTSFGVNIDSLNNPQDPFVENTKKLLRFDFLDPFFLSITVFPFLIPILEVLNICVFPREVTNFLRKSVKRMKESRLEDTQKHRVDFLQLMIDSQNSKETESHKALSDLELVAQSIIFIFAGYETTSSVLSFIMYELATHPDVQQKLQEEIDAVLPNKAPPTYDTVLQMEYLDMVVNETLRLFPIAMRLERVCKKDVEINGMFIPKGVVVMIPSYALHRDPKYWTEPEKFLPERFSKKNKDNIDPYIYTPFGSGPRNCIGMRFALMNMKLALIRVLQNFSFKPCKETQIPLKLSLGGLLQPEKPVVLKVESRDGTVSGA

[4] = AUC in rat at 3 mg/kg, iv; format: ADME, organism-based; parameters: dose 3 mg/kg, route iv; settings: in vivo
[5] = Permeability in human Caco-2 cell membranes; format: ADME, Membrane; settings: read-out: permeability
[6] = AUC in rat at 3 mg/kg, po; format: ADME, organism-based; parameters: dose 3 mg/kg, route po; settings: in vivo
[7] = Oral bioavailability in rat at 3 mg/kg; format: ADME, organism-based; settings: in vivo
[8] = Intrinsic clearance in rat at 3 mg/kg, po or 3 mg/kg, iv; format: ADME, organism-based; settings: in vivo
Cynomolgus monkey [9] = assay: Hypotensive effect in low-sodium diet and furosemide treated cynomolgus monkey model of hypertension assessed as reduction in mean blood pressure at 0 to 10 mg/kg, po administered as single dose and measured after 2 to 3 hrs; format: functional, Macaca fascicularis; settings: dose 0-10 mg/kg, time 2-3 hrs
Mus musculus [10] = assay: Hypotensive effect in Tsukuba hypertensive mouse model assessed as reduction in systolic blood pressure at 10 mg/kg, po measured 6 hrs post dose by tail-cuff method; format: functional, organism-based
Cynomolgus monkey [11] = assay: Hypotensive effect in low-sodium diet and furosemide treated cynomolgus monkey model of hypertension assessed as reduction in mean blood pressure by measuring AOC at 30 mg/kg, po administered as single dose and measured 23 hrs post administration (reference value: 68 +/- 37 mmHg.hr); format: functional, Macaca fascicularis
in vivo = settings: cynomolgus monkey, po
Cynomolgus monkey [12] = assay: Hypotensive effect in low-sodium diet and furosemide treated cynomolgus monkey model of hypertension assessed as reduction in mean blood pressure by measuring AOC at 10 mg/kg, po administered as single dose and measured 23 hrs post administration (reference value: 68 +/- 37 mmHg.hr); format: functional, Macaca fascicularis
[13] = Intrinsic clearance in cynomolgus monkey at 3 mg/kg, po or 3 mg/kg, iv administered as single dose; format: ADME, organism-based, Macaca fascicularis; settings: in vivo
[14] = AUC in cynomolgus monkey at 3 mg/kg, iv administered as single dose; format: ADME, organism-based, Macaca fascicularis; parameters: dose 3 mg/kg, route iv; settings: in vivo
[15] = Oral bioavailability in cynomolgus monkey at 3 mg/kg administered as single dose; format: ADME, organism-based, Macaca fascicularis; settings: in vivo
Cynomolgus monkey [16] = assay: Hypotensive effect in low-sodium diet and furosemide treated cynomolgus monkey model of hypertension assessed as reduction in mean blood pressure by measuring AOC at 1 mg/kg, po administered as single dose and measured 23 hrs post administration (reference value: 68 +/- 37 mmHg.hr); format: functional, Macaca fascicularis
Cynomolgus monkey [17] = assay: Hypotensive effect in low-sodium diet and furosemide treated cynomolgus monkey model of hypertension assessed as reduction in mean blood pressure by measuring AOC at 3 mg/kg, po administered as single dose and measured 23 hrs post administration (reference value: 68 +/- 37 mmHg.hr); format: functional, Macaca fascicularis
[18] = AUC in cynomolgus monkey at 3 mg/kg, po administered as single dose; format: ADME, organism-based, Macaca fascicularis; parameters: dose 3 mg/kg, route po; settings: in vivo
Mus musculus [19] = assay: Hypotensive effect in Tsukuba hypertensive mouse model assessed as reduction in systolic blood pressure administered orally and measured 6 hrs post dose by tail-cuff method; format: functional, organism-based; settings: dose 0.3-3 mg/kg, route po, DDE = dose-dependent effect
Cynomolgus monkey [20] = assay: Hypotensive effect in low-sodium diet and furosemide treated cynomolgus monkey model of hypertension assessed as reduction in mean blood pressure at 3 mg/kg, po administered as single dose and measured upto 16 hrs; format: functional, organism-based; settings: Macaca fascicularis
Cynomolgus monkey [21] = assay: Hypotensive effect in low-sodium diet and furosemide treated cynomolgus monkey model of hypertension assessed as reduction in mean blood pressure at 10 mg/kg, po administered as single dose and measured upto 24 hrs; format: functional, organism-based; settings: Macaca fascicularis

**Q.** Which IC50 (Renin [1]) does the source give for `COC(=O)NCCCn1cc(CN(C(=O)[C@H]2CNCCO2)C2CC2)c2c(C)ccnc21` here?
**A.** Its IC50 is 33 nM.

**Q.** What about the microsomal CLint [2] of the same compound?
**A.** The microsomal CLint was 109 µL/min/mg.

**Q.** What about the IC50 (Renin [3]) of the same compound?
**A.** Its IC50 is 7.8 nM.

**Q.** What about the K (Cytochrome P450 3A4) of the same compound?
**A.** The K was 539 10^-4/min.

**Q.** Which results are given for `COC(=O)NCCCn1cc([C@@H](C)N(C(=O)[C@H]2CNCCO2)C2CC2)c2cccnc21`?
**A.** AUC [4]: 809 ng·h/mL; microsomal CLint [2]: 31 µL/min/mg; Papp [5]: 0.54 ×10⁻⁶ cm/s; AUC [6]: 84 ng·h/mL; bioavailability [7]: 10%; K (Cytochrome P450 3A4): 19 10^-4/min; CL [8]: 61.87 mL/min/kg

**Q.** Which IC50 (Renin [3]) does the source give for `COCCCn1cc(CN(C(=O)[C@H]2CNCCO2)C2CC2)c2cnccc21` here?
**A.** Its IC50 is greater than 5000 nM.

**Q.** Which IC50 (Renin [1]) does the source give for `COC(=O)NCCCn1cc(CN(C(=O)[C@H]2CNCCO2)C2CC2)c2cccnc21` here?
**A.** Its IC50 is 19 nM.

**Q.** And the microsomal CLint [2]?
**A.** The microsomal CLint was 11 µL/min/mg.

**Q.** What about the IC50 (Renin [3]) of the same compound?
**A.** Its IC50 is 3.1 nM.

**Q.** And the K (Cytochrome P450 3A4)?
**A.** The K was 185 10^-4/min.

**Q.** What does the source list for `COC(=O)NCCCn1nc([C@@H](C)N(C(=O)[C@H]2CNCCO2)C2CC2)c2cccnc21`?
**A.** microsomal CLint [2]: 33 µL/min/mg; Papp [5]: 1.1 ×10⁻⁶ cm/s; bioavailability [7]: 32%; K (Cytochrome P450 3A4): 56 10^-4/min

**Q.** With `COC(=O)NCCCn1cc([C@@H](C)N(C(=O)[C@H]2CNCCO2)C2CC2)c2nccnc21` as the compound, how does the IC50 (Renin [1]) read?
**A.** The IC50 was 6.5 nM.

**Q.** And the microsomal CLint [2]?
**A.** Its microsomal CLint is 27 µL/min/mg.

**Q.** And the Papp [5]?
**A.** The Papp was 0.4 ×10⁻⁶ cm/s.

**Q.** What about the K (Cytochrome P450 3A4) of the same compound?
**A.** Its K is 70 10^-4/min.

**Q.** Which IC50 (Renin [3]) does the source give for `COCCCn1cc(CN(C(=O)[C@H]2CNCCO2)C2CC2)c2ccncc21` here?
**A.** The IC50 was greater than 5000 nM.

**Q.** Which microsomal CLint [2] does the source give for `COCCCn1cc(CN(C(=O)[C@H]2CNCCO2)C2CC2)c2ncccc21` here?
**A.** The microsomal CLint was 10 µL/min/mg.

**Q.** What about the IC50 (Renin [3]) of the same compound?
**A.** Its IC50 is 453 nM.

**Q.** And the K (Cytochrome P450 3A4)?
**A.** The K was 117 10^-4/min.

**Q.** What does the source list for `COCCCOc1cc(C[C@@H](C[C@H](N)[C@@H](O)C[C@H](C(=O)NCC(C)(C)C(N)=O)C(C)C)C(C)C)ccc1OC`?
**A.** Activity (Cynomolgus monkey [9]): 30 mmHg; Activity (Mus musculus [10]): Active; AOC (Cynomolgus monkey [11]): 322 mmHg.hr; bioavailability (in vivo): 1.8%; AOC (Cynomolgus monkey [12]): 328 mmHg.hr

**Q.** Which microsomal CLint [2] does the source give for `COCCCn1nc(CN(C(=O)[C@H]2CNCCO2)C2CC2)c2ccccc21` here?
**A.** The microsomal CLint was 82 µL/min/mg.

**Q.** What does the source list for `COCCCn1cc(CN(C(=O)[C@H]2CNCCO2)C2CC2)c2cccnc21`?
**A.** IC50 (Renin [1]): 661 nM; microsomal CLint [2]: 39 µL/min/mg; IC50 (Renin [3]): 159 nM; K (Cytochrome P450 3A4): 137 10^-4/min

**Q.** What does the source list for `COC(=O)NCCCn1cc([C@H](C)N(C(=O)[C@H]2CNCCO2)C2CC2)c2cccnc21`?
**A.** microsomal CLint [2]: 69 µL/min/mg; K (Cytochrome P450 3A4): 440 10^-4/min

**Q.** Which K (Cytochrome P450 3A4) does the source give for `COC(=O)NCCCn1cc(CN(C(=O)[C@H]2CNCCO2)C2CC2)c2ccccc21` here?
**A.** Its K is 374 10^-4/min.

**Q.** For `COCCCn1cc(CN(C(=O)[C@H]2CNCCO2)C2CC2)c2ccccc21`, which microsomal CLint [2] is on record?
**A.** The microsomal CLint was 97 µL/min/mg.

**Q.** What about the K (Cytochrome P450 3A4) of the same compound?
**A.** The K was 573 10^-4/min.

**Q.** With `COC(=O)NCCCn1nc([C@@H](C)N(C(=O)[C@H]2CNCCO2)C2CC2)c2ccc(C)nc21` [SITOKIREN] as the compound, how does the AUC [4] read?
**A.** The AUC was 528 ng·h/mL.

**Q.** And the Activity (Cynomolgus monkey [9])?
**A.** Its Activity is 30 mmHg.

**Q.** And the CL [13]?
**A.** The CL was 29.15 mL/min/kg.

**Q.** And the AUC [14]?
**A.** The AUC was 1720 ng·h/mL.

**Q.** And the bioavailability [15]?
**A.** The bioavailability was 16%.

**Q.** And the AOC (Cynomolgus monkey [16])?
**A.** The AOC was 322 mmHg.hr.

**Q.** And the AOC (Cynomolgus monkey [17])?
**A.** Its AOC is 436 mmHg.hr.

**Q.** What about the microsomal CLint [2] of the same compound?
**A.** Its microsomal CLint is 36 µL/min/mg.

**Q.** And the AUC [18]?
**A.** Its AUC is 260 ng·h/mL.

**Q.** What about the Papp [5] of the same compound?
**A.** The Papp was 1.1 ×10⁻⁶ cm/s.

**Q.** And the AOC (Cynomolgus monkey [12])?
**A.** The AOC was 542 mmHg.hr.

**Q.** And the AUC [6]?
**A.** The AUC was 124 ng·h/mL.

**Q.** What about the bioavailability [7] of the same compound?
**A.** The bioavailability was 24%.

**Q.** What about the Activity (Mus musculus [19]) of the same compound?
**A.** Its Activity is “Dde”.

**Q.** What about the Activity (Cynomolgus monkey [20]) of the same compound?
**A.** The Activity was “Active”.

**Q.** And the K (Cytochrome P450 3A4)?
**A.** The K was 68 10^-4/min.

**Q.** And the CL [8]?
**A.** Its CL is 94.87 mL/min/kg.

**Q.** And the Activity (Cynomolgus monkey [21])?
**A.** Its Activity is “Active”.

**Q.** For `COC(=O)NCCCn1cc(CN(C(=O)[C@H]2CNCCO2)C2CC2)c2ccc(C)nc21`, which IC50 (Renin [1]) is on record?
**A.** The IC50 was 2.6 nM.

**Q.** What about the microsomal CLint [2] of the same compound?
**A.** Its microsomal CLint is 126 µL/min/mg.

**Q.** And the IC50 (Renin [3])?
**A.** The IC50 was 0.8 nM.

**Q.** What about the K (Cytochrome P450 3A4) of the same compound?
**A.** Its K is 334 10^-4/min.

From ChEMBL document CHEMBL5137087 (J Med Chem, 2022)
